According to patent US20210115509A1, “BIOMARKER FOR IDENTIFYING SPECIFIC EXPOSURE TO KETONES AND METHOD OF IDENTIFICATION USING THE SAME” (KOREA INSTITUTE OF SCIENCE AND TECHNOLOGY, priority 2019, published 2021):

Assays:
[1] = test system: BEAS-2B human bronchial epithelial cell line; test: MTT assay, cytotoxicity of ketone compounds in BEAS-2B cell line; format: cell-based; conditions: human, 48 h
Procedure: BEAS-2B (Korean Cell Line Bank), a human bronchial epithelial cell line, was cultured using RPMI 1640 medium (Gibco, USA) supplemented with 10% FBS until the cells grew to about a confluence of 70 to 80% in a 100 mm dish.
Among ketones belonging to mVOCs (microbial volatile organic compounds) exposed to the environment, acetone, 2-butanone, 2-pentanone, 2-hexanone and 2-heptanone were selected, and the chemicals were dissolved in filtered distilled water (DW). A vehicle concentration was set to 0.1% or less in all experiments.
MTT assay using a BEAS-2B cell line was performed in accordance with the method of Mossman et al. (J. Immunol. Methods, 65, 55-63, 1983).
Specifically, the cells were seeded at a density of 3.5×10^4 cells/well in a 24-well plate and treated with the five ketone compounds dissolved in filtered distilled water, prepared in Example 1-2. After 48 hours, the result was mixed with 5 mg/ml of MTT (3-4,5-dimethylthiazol-2,5-diphenyltetrazolium bromide), added to a tube and incubated at 37° C. for 3 hours. Then, the medium was removed, the formed formazan crystal was dissolved in 500 μl of DMSO, and then 100 μl of the solution was transferred to a 96-well plate to measure an OD (optical density) value at 540 nm.

[2] = test system: BEAS-2B human bronchial epithelial cell line; test: Gene expression change by high-throughput RNA sequencing (NextSeq 500) in ketone-exposed BEAS-2B cells; format: cell-based
Procedure: RNA was extracted from cell samples of ketone-exposed and non-ketone-exposed groups using a TRIzol reagent (Life Technologies, USA) in accordance with the manufacturer's directions to isolate total RNA and the total RNA was purified using a RNeasy mini kit (Qiagen, USA). The concentration of each total RNA sample was determined by a ND-2000 spectrophotometer (Thermo Inc., DE, USA) as a spectrophotometer and Agilent 2100 Bioanalyzer (Agilent Technologies, USA).
The establishment of libraries from the total RNA obtained in Example 2-1 in the experimental group and the normal control group exposed to the ketones was carried out using a QuantSeq 3′ mRNA-Seq Library Prep Kit (Lexogen, Inc., Austria) in accordance with the manufacturer's directions. 500 ng of the total RNA was hybridized with an oligo-dT primer including an Illumina-compatible sequence at the 5′ end of RNA, followed by reverse transcription. After degradation of the RNA template, a second strand was synthesized using a random primer including an Illumina-compatible linker sequence at the 5′ end thereof. Double-stranded libraries were purified using magnetic beads to remove all reaction components. The library was amplified in order to add the entire adapter sequence required for cluster production, and the completed cDNA library was purified from the PCR components.
Sequencing was performed by high-throughput sequencing as single-end 75 sequencing using a NextSeq 500 (IIlumina, Inc., USA). Read count (RC) data was processed based on the quantile normalization method using EdgeR in R (R development Core Team, 2016) using Bioconductor (Gentleman et al., 2004). Gene classification was based on searches performed on DAVID (http://david.abcc.ncifcrf.gov/) and the Medline database (http://www.ncbi.nlm.nih.gov/).
The extracted data were analyzed through normalization using Agilent GeneSpring GX 12.6.1 (Agilent technologies, CA, USA) to analyze the expression pattern of each gene.

[3] = IC5 conc.: Acetone 5.38, 2-Butanone 22.27, 2-Pentanone 5.24, 2-Hexanone 14.82, 2-Heptanone 5.05 mM
[4] = IC20 conc.: Acetone 71.90, 2-Butanone 106.21, 2-Pentanone 39.38, 2-Hexanone 52.51, 2-Heptanone 20.22 mM

CCCCCC(C)=O [2-Heptanone, 2-heptanone]
concentration (105) providing a survival rate (viability) of 95% [1]: 5050 µM | concentration (1020) providing a survival rate (viability) of 80% [1]: 20220 µM | Fold change ADRA2A (NM_000681) [2, 3]: 0.321 | Fold change ATRNL1 (NR_074088) [2, 3]: 3.365 | Fold change C12orf79 (NR_046159) [2, 3]: 0.213 | Fold change C14orf80 (NR_046159) [2, 3]: 0.354 | Fold change CALML3 (NM_001286399) [2, 3]: 0.354 | Fold change CCDC184 (NM_001013635) [2, 3]: 4.098 | Fold change CD37 (NM_001040031) [2, 3]: 5.216 | Fold change CDHR1 (NM_001171971) [2, 3]: 0.386 | Fold change CHL1 (NM_001253387) [2, 3]: 0.122 | Fold change COL4A3 (NM_000091) [2, 3]: 4.774 | Fold change CRLF2 (NM_022148) [2, 3]: 0.355 | Fold change CSF3R (NM_172313) [2, 3]: 0.354 | Fold change DNMBP-AS1 (NR_024130) [2, 3]: 2.035 | Fold change EGR1 (NM_001964) [2, 3]: 0.410 | Fold change GNA14 (NM_004297) [2, 3]: 4.971 | Fold change LOC728752 (NR_036504) [2, 3]: 5.873 | Fold change PAX8 (NM_003466) [2, 3]: 4.275 | Fold change PRRT3-AS1 (NR_046734) [2, 3]: 2.285 | Fold change RBP3 (NM_002900) [2, 3]: 0.354 | Fold change SEPT14 (NM_207366) [2, 3]: 0.214 | Fold change SERPINA12 (NM_001304461) [2, 3]: 0.354 | Fold change SLC13A4 (NM_012450) [2, 3]: 4.638 | Fold change SPOCK2 (NM_001244950) [2, 3]: 4.800 | Fold change TSPAN1 (NM_005727) [2, 3]: 4.660 | Fold change USP12-AB1 (NR_046647) [2, 3]: 11.319 | Fold change VIPR†-AS1 (NR_046654) [2, 3]: 0.354 | Fold change XIRP1 (NM_001198621) [2, 3]: 0.354 | Fold change ZFP69B (NM_023070) [2, 3]: 3.346 | Fold change ZNF432 (NM_014650) [2, 3]: 3.207 | Fold change ZNF487 (NR_026693) [2, 3]: 0.354 | Fold change ADRA2A (NM_000681) [2, 4]: 0.179 | Fold change ATRNL1 (NR_074088) [2, 4]: 3.204 | Fold change C12orf79 (NR_046159) [2, 4]: 0.213 | Fold change C14orf80 (NR_046159) [2, 4]: 0.354 | Fold change CALML3 (NM_001286399) [2, 4]: 0.354 | Fold change CCDC184 (NM_001013635) [2, 4]: 6.381 | Fold change CD37 (NM_001040031) [2, 4]: 3.227 | Fold change CDHR1 (NM_001171971) [2, 4]: 0.216 | Fold change CHL1 (NM_001253387) [2, 4]: 0.335 | Fold change COL4A3 (NM_000091) [2, 4]: 8.193 | Fold change CRLF2 (NM_022148) [2, 4]: 0.355 | Fold change CSF3R (NM_172313) [2, 4]: 0.354 | Fold change DNMBP-AS1 (NR_024130) [2, 4]: 11.098 | Fold change EGR1 (NM_001964) [2, 4]: 0.381 | Fold change GNA14 (NM_004297) [2, 4]: 4.498 | Fold change LOC728752 (NR_036504) [2, 4]: 5.440 | Fold change PAX8 (NM_003466) [2, 4]: 4.602 | Fold change PRRT3-AS1 (NR_046734) [2, 4]: 2.525 | Fold change RBP3 (NM_002900) [2, 4]: 0.354 | Fold change SEPT14 (NM_207366) [2, 4]: 0.214 | Fold change SERPINA12 (NM_001304461) [2, 4]: 0.354 | Fold change SLC13A4 (NM_012450) [2, 4]: 11.825 | Fold change SPOCK2 (NM_001244950) [2, 4]: 2.838 | Fold change TSPAN1 (NM_005727) [2, 4]: 3.058 | Fold change USP12-AB1 (NR_046647) [2, 4]: 4.509 | Fold change VIPR†-AS1 (NR_046654) [2, 4]: 0.354 | Fold change XIRP1 (NM_001198621) [2, 4]: 0.354 | Fold change ZFP69B (NM_023070) [2, 4]: 2.674 | Fold change ZNF432 (NM_014650) [2, 4]: 4.845 | Fold change ZNF487 (NR_026693) [2, 4]: 0.354
